The text below walks through data of US8859605B2, “Cysteine protease inhibitors” (Medivir UK Ltd, priority 2009, dated 2014).

Broadly, the Ki is the dissociation constant of the complex between target and ligand, obtained from inhibition or displacement.

In series [1] the target is T1, human cathepsin S (Homo sapiens, UniProt P25774).
T1 construct: made in house; host or cells: baculovirus expression system
Kind of series: Cathepsin S Ki determination (boc-Val-Leu-Lys-AMC fluorescent substrate). The format is biochemical. The following applies: baculovirus-expressed human cathepsin S, pH 6.5; read-out: Ki Cat. S. The procedure: Cathepsin S Ki Determination
The assay uses baculovirus-expressed human cathepsin S and the boc-Val-Leu-Lys-AMC fluorescent substrate available from Bachem in a 384 well plate format, in which 7 test compounds can be tested in parallel with a positive control comprising a known cathepsin S inhibitor comparator.
280 μL/well of 12.5% DMSO are added to rows B-H of two columns of a 96 deep well polypropylene plate. 70 μL/well of substrate is added to row A. 2×250 μL/well of assay buffer (100 mM Na phosphate, 100 mM NaCl, pH 6.5) is added to row A, mixed, and double diluted down the plate to row H.
100 μL/well of assay buffer is added to columns 2-5 and 7-12 of 4 rows of a 96 well V bottom polypropylene plate. 200 μL/well of assay buffer is added to columns 1 and 6.
2 μl of each 10 mM test compound is added to a separate well on row A, columns 1-10. Add 90 μl assay buffer containing 1 mM DTT and 2 nM cathepsin S to each well of rows B-H and 180 μl to row A. Mix row A using a multichannel pipette and double dilute to row G. Mix row H and read in the fluorescent spectrophotometer.
The second test compound is added to column 6 of the top row, the third to column 1 of the second row etc. Add 1 μL of comparator to column 6 of the bottom row. Mix column 1 and double dilute to column 5. Mix column 6 and double dilute to column 10. Using an 8-channel multistepping pipette set to 5×10 μL, distribute 10 μL/well of substrate to the 384 well assay plate. Distribute the first column of the substrate dilution plate to all columns of the assay plate starting at row A. The tip spacing of the multichannel pipette will correctly skip alternate rows. Distribute the second column to all columns starting at row B. Using a 12-channel multistepping pipette set to 4×10 μL, distribute 10 μL/well of inhibitor to the 384 well assay plate. Distribute the first row of the inhibitor dilution plate to alternate rows of the assay plate starting at A1. The tip spacing of the multichannel pipette will correctly skip alternate columns. Similarly, distribute the second, third and fourth rows to alternate rows and columns starting at A2, B1 and B2 respectively.
Mix 20 mL assay buffer and 20 μL 1M DTT. Add sufficient cathepsin S to give 2 nM final concentration.
Using the a distributor such as a Multidrop 384, add 30 μL/well to all wells of the assay plate and read in fluorescent spectrophotometer such as an Ascent.
Fluorescent readings, (excitation and emission wavelengths 390 nm and 460 nm respectively, set using bandpass filters) reflecting the extent of enzyme cleavage of the fluorescent substrate, […] the inhibitor, are linear rate fitted for each well.
Fitted rates for all wells for each inhibitor are fitted to the competitive inhibition equation using SigmaPlot 2000 to determine V, Km and Ki values.
(§1) Potential inhibitors are screened using the above assay with variable concentrations of test compound. Reactions were initiated by addition of enzyme to buffered solutions of substrate and inhibitor. Ki values were calculated according to equation 1.
(§2) [formula] where v0 is the velocity of the reaction, V is the maximal velocity, S is the concentration of substrate with Michaelis constant of KM, and I is the concentration of inhibitor.

Series [2] addresses T2, human recombinant cathepsin K (Homo sapiens, UniProt P43235).
T2 construct: made in house; host or cells: not fixed: E coli, Pichia or Baculovirus systems are named as options
T2 sequence (P43235 115-329): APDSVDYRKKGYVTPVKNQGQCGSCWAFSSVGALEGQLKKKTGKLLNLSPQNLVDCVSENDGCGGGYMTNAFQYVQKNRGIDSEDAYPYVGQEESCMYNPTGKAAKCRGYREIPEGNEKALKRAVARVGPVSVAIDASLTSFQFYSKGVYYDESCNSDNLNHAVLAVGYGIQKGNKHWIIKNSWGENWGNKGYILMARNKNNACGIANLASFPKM
Nature of the series: Determination of cathepsin K proteolytic catalytic activity (H-D-Ala-Leu-Lys-AMC substrate). The format is biochemical. The following applies: read-out: Ki Cat. K. The procedure:
Determination of Cathepsin K Proteolytic Catalytic Activity
Convenient assays for cathepsin K are carried out using human recombinant enzyme, such as that described in PDB. • ID BC016058 standard; mRNA; HUM; 1699 BP. • DE Homo sapiens cathepsin K (pycnodysostosis), mRNA (cDNA clone MGC:23107 • RX MEDLINE; RX PUBMED; 12477932. • DR RZPD; IRALp962G1234. • DR SWISS-PROT; P43235;
The recombinant cathepsin K can be expressed in a variety of commercially available expression systems including E coli, Pichia and Baculovirus systems. The purified enzyme is activated by removal of the prosequence by conventional methods.
Standard assay conditions for the determination of kinetic constants used a fluorogenic peptide substrate, typically H-D-Ala-Leu-Lys-AMC, and were determined in either 100 mM Mes/Tris, pH 7.0 containing 1 mM EDTA and 10 mM 2-mercaptoethanol or 100 mMNa phosphate, imM EDTA, 0.1% PEG4000 pH 6.5 or 100 mM Na acetate, pH 5.5 containing 5 mM EDTA and 20 mM cysteine, in each case optionally with […] as stabiliser. The enzyme concentration used was 5 nM. The stock substrate solution was prepared at 10 mM in DMSO. Screens were carried out at a fixed substrate concentration of 60 μM and detailed kinetic studies with doubling dilutions of substrate from 250 μM. The total DMSO concentration in the assay was kept below 3%. All assays were conducted at ambient temperature. Product fluorescence (excitation at 390 nm, emission at 460 nm) was monitored with a Labsystems Fluoroskan Ascent fluorescent plate reader. Product progress curves were generated over 15 minutes following generation of AMC product.
as §1, §2

Series [3] deals with human cathepsin L (Homo sapiens, UniProt P07711). Kind of series: Cathepsin L Ki (H-D-Val-Leu-Lys-AMC substrate). It is filed as biochemical. The following applies: pH 5.5, read-out: Ki Cat. L. The procedure:
The procedure above with the following amendments is used for the determination of Ki for cathepsin L.
The enzyme is commercially available human cathepsin L (for example Calbiochem). The substrate is H-D-Val-Leu-Lys-AMC available from Bahcem. The assay buffer is 100 mM sodium acetate 1 mM EDTA, pH5.5) The DMSO stock (10 mM in 100% DMSO) is diluted to 10% in assay buffer. Enzyme is prepared at 5 nM concentration in assay buffer plus 1 mM dithiothreitol just before use. 2 μL of 10 mM inhibitor made up in 100% DMSO is dispensed into row A. 10 μL of 50 μM substrate (=1/200 dilution of 10 mM stock in DMSO, diluted in assay buffer).
as §1, §2

The conditions of series [4]: reference markers (passive transport, active transport, active efflux); cited from earlier work.

Chain of human cathepsin L (P07711 114-333): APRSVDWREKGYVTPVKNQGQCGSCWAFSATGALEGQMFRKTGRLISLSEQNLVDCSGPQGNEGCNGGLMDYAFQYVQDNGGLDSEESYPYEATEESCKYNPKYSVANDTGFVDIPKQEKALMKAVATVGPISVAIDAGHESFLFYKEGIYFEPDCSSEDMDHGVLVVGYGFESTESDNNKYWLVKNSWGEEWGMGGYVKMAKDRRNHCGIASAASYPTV
T1 sequence (P25774 115-331): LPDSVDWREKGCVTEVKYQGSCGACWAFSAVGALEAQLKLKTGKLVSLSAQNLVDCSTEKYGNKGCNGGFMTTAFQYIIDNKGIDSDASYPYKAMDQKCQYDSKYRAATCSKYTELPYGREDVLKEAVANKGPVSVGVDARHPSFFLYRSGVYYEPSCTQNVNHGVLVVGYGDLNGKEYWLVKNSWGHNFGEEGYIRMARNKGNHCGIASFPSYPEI

With `COC1CC(NC(=O)[C@H](CC2(C)CCCC2)NC(C)=O)(C(=O)C(=O)NC2CC2)C1` (stereo partly drawn) [Example A16], the values for the Ki in series [1], in series [2] and in series [3] were 0.01 µM, 12 µM and 33 µM, respectively.

Take `Cn1ccc(NC(=O)C(=O)C2(NC(=O)[C@H](CC3(F)CCCC3)NC(=O)C(F)F)CC(F)(F)C2)n1` [Example A36]: the Ki in series [1] was 0.003 µM; in series [2] it was 1.1 µM; in series [3], 0.38 µM.

Take `CC(=O)N[C@@H](CC1(C)CCCC1)C(=O)NC1(C(=O)C(=O)Nc2ccn(C)n2)CCC1` [Example A6]: the Ki stood at 0.00081 µM in series [1], 0.58 µM in series [2] and 5.2 µM in series [3].

In the case of `CC(=O)N[C@@H](CC(C)(C)C)C(=O)NC1(C(=O)C(=O)Nc2ccn(C)n2)CC(F)(F)C1` [Example A15], the figures for the inhibition constant Ki in series [1], in series [2] and in series [3] were 0.02 µM, 1.2 µM and 6.5 µM, respectively.

For the compound `OC[C@@H](O)[C@@H](O)[C@H](O)[C@H](O)CO` [Mannitol], in series [4], the “absorption in man (%)” value is 16%.

Consider `CCN(CC)C(=O)N[C@@H](CC1(C)CCCC1)C(=O)N[C@]1(C(=O)C(=O)Nc2ccn(C)n2)C[C@@H](F)C1` [Example U1, 2-(3,3-Diethyl-ureido)-N-[3-fluoro-1-(1-methyl-1H-pyrazol-3-ylaminooxalyl)-cyclobutyl]-3-(1-methyl-cyclopentyl)-propionamide], for which the Ki turned out to be 0.0012 µM in series [1], 0.51 µM in series [2] and 0.86 µM in series [3].

For `N[C@@H](Cc1ccccc1)C(=O)O` [L-Phenylalanine], the “absorption in man (%)” value in series [4] is 100%.

In the case of `COC1CC(NC(=O)[C@H](CC2(C)CCCC2)NC(=O)CCl)(C(=O)C(=O)NC2CC2)C1` (stereo partly drawn) [Example A19], the Ki in series [1] is 0.0056 µM; in series [2], 7.4 µM; in series [3], 25 µM.

For `[2H]C([2H])([2H])C(C(=O)N[C@@H](CC1(F)CCCC1)C(=O)NC1(C(=O)C(=O)Nc2ccn(C)n2)CC(F)(F)C1)(C([2H])([2H])[2H])C([2H])([2H])[2H]` [Example A37], the inhibition constant Ki in series [1] came to 0.003 µM; in series [2], 0.64 µM; in series [3] it was 1.8 µM.

Take `CC(C)NC(=O)N[C@@H](CC1(F)CCCC1)C(=O)N[C@]1(C(=O)C(=O)Nc2ccn(C)n2)C[C@@H](F)C1` [Example U2, 3-(1-Fluoro-cyclopentyl)-N-[3-fluoro-1-(1-methyl-1H-pyrazol-3-ylaminooxalyl)-cyclobutyl]-2-(3-isopropyl-ureido)-propionamide]: the inhibitory constant (Ki) in series [1] is 0.0013 µM; in series [2], 1.3 µM; in series [3], 2.2 µM.

Take `COC1CC(NC(=O)[C@H](CC2(F)CCCC2)NC(=O)C(C)(C)C)(C(=O)C(=O)Nc2ccn(C)n2)C1` (stereo partly drawn) [Example A31]: the inhibitory constant (Ki) in series [1] is 0.0018 µM; in series [2], 0.34 µM; in series [3] it was 1.2 µM.

Regarding `CCNC(=O)N[C@@H](CC1(F)CCCC1)C(=O)NC1(C(=O)C(=O)Nc2ccn(C)n2)CCC1` [Example U4], the Ki in series [1] was 0.00063 µM; in series [2], 0.62 µM; in series [3], 2.1 µM.

Regarding `CC(=O)N[C@@H](CC1(C)CCC1)C(=O)NC1(C(=O)C(=O)Nc2ccn(C)n2)CC(F)(F)C1` [Example A13], the inhibition constant (Ki) was 0.0038 µM in series [1], 0.34 µM in series [2] and 0.87 µM in series [3].

For the compound `CCC(=O)N[C@@H](CC1(C)CCCC1)C(=O)N[C@]1(C(=O)C(=O)Nc2ccn(C)n2)C[C@@H](F)C1` [Example A1, N-[3-Fluoro-1-(1-methyl-1H-pyrazol-3-ylaminooxalyl)-cyclobutyl]-3-(1-methyl-cyclopentyl)-2-propionylamino-propionamide], the Ki is 0.0008 µM in series [1], 0.85 µM in series [2] and 3.9 µM in series [3].

Regarding `CN(Cc1cnc2nc(N)nc(N)c2n1)c1ccc(C(=O)N[C@@H](CCC(=O)O)C(=O)O)cc1` [Methotrexate], in series [4], the “absorption in man (%)” value is on record as 20%.

For `CC(C)C(=O)NC(CC1(F)CCCC1)C(=O)NC1(C(=O)C(=O)Nc2ccn(C)n2)CC(F)C1` (stereo not drawn) [Example A30], the figures for the Ki in series [1], in series [2] and in series [3] were 0.001 µM, 0.72 µM and 3.3 µM, respectively.

As for `CC(C)C(=O)N[C@@H](CC1(C)CCCC1)C(=O)NC1(C(=O)C(=O)Nc2ccn(C)n2)CC(F)(F)C1` [Example A25], the values for the Ki in series [1], in series [2] and in series [3] were 0.001 µM, 1.1 µM and 2.3 µM, respectively.
